Test results from patent US4582821A, “Inhibition of cyclic nucleotide independent protein kinases” (E. I. Du Pont de Nemours and Company, priority 1983, dated 1986).
Square brackets hold non-standard residues; d marks the D form. Peptide text beside a SMILES is read from it. * marks the point of attachment. ξ: configuration not given here. Cbz = O=C(OCc1ccccc1)*; ξL = CC(C)CC(N)C(=O)O; CH2Cl = ClC*

Assays:
lymphoma cell line YAC-1 = assay: Tumor cell line growth inhibition, YAC-1; type: cell-based
Procedure: (§1) In this series of experiments, the tumor cell growth inhibitory capacity of various peptide halomethyl ketones was tested against lymphoma cell lines YAC-1 and MOLT-4, and against an erythroleukemia cell line, K-562. The lymphoma cell line YAC-1 is described by Kiessling, et al., Eur. J. Immunol. 5:112 (1975), and MOLT-4 is described by Minowada, et al., J. Natl. Cancer Inst. 49:891 (1972) and Nilsson, et al., Int. J. Cancer 15:321 (1975). The erythroleukemia cell line K-562 is described by Lozzio, et al., Leuk. Res. 3:363 (1979). In these experiments, cells were grown on standard media as 10 mL suspension cultures. Initial cell density was 10^5 cells/mL. At day 0, test compounds were introduced in ethanol; control cultures received an equal volume of ethanol. Cells were counted at the times indicated.

[1] = tested on: erythroleukemia cell line K-562; assay: Tumor cell line growth inhibition, K-562; type: cell-based
Procedure: as §1

[2] = tested on: lymphoma cell line MOLT-4; assay: Tumor cell line growth inhibition, MOLT-4; type: cell-based
Procedure: as §1

[3] = tested on: A-431 plasma membrane extracts (EGF-mediated protein phosphorylation); assay: Protein phosphorylation in solubilized A-431 plasma membrane extracts, with or without EGF; type: biochemical, human; conditions: 400 nmol/mg protein
Procedure: The capacity of certain peptide halomethyl ketones to inhibit protein phosphorylation is illustrated by Examples 1-8, below, in which solubilized plasma membranes prepared from A-431 human epidermoid carcinoma cells were incubated with [γ-^32 P] ATP in the presence of EGF.
A-431 human epidermoid carcinoma cells were grown in Dulbecco's modified Eagle's medium containing 5% fetal calf serum. Plasma membranes were isolated by a method substantially similar to that described by Thom et al., Biochem J. 168:187 (1977), and kept at -70°. Solubilization of plasma membranes was performed substantially as described by Cohen et al., J. Biol. Chem. 255:4834 (1980). In this procedure, 7.5 mg/mL protein was solubilized with 5% Triton X-100 (octylphenol), 10% glycerol, and 20 mM Hepes buffer (N-2-hydroxyethylpiperazine-N^1 -2-ethanesulfonic acid), pH 7.4. This mixture was incubated for 20 minutes at about 23°, followed by centrifugation at 100,000 xg for 60 minutes.
Protein phosphorylation assays were conducted substantially as described by Carpenter et al., J. Biol. Chem. 254:4884 (1979). Each assay mixture contained, in a final volume of 70 μL: 20 mM Hepes, pH 7.4, 0.01% bovine serum albumin (BSA), 15-150 μg protein in Triton extract, 100 ng EGF, 1 mM MnCl2 and 10-20 μM [γ-^32 P] ATP (2-4 μCi). Peptide halomethyl ketones were added as solutions in ethanol; an equivalent volume of ethanol was added to controls. Assay mixtures were incubated at about 23° for ten minutes, with or without added EGF. Mixtures were then held at 0° for ten minutes before initiation of phosphorylation by addition of 15 μM γ-^32 P) ATP (2 μCi). Reactions were terminated after 3 minutes at 0° by applying an aliquot of the assay mixture to a Whatman 3MM filter paper (2×2 cm), which was then suspended in ice-cold 10% trichloroacetic acid containing 10 mM pyrophosphate. This suspension was gently shaken for a period of 1 hour, during which the trichloroacetic acid/pyrophosphate mixture was changed three times. Finally, the filter papers were dried and radioactivity measured by scintillation counting.

p130^fps = target: T1, p130^fps (UniProt P00530+P03323); assay: Casein phosphorylation by p130fps immunoprecipitates; type: biochemical, Fujinami sarcoma virus (FSV); conditions: casein-phosphorylating activity of p130fps; concentration not given
T1 construct: anti-gag serum and Staphylococcus protein A suspension (for FSV-transformed cells); viral gag-derived N-terminal portion (natural gag-fps fusion); expressed in transfected cells; immune complex with anti-gag serum and Staphylococcus protein A
Procedure: In a related experiment, the capacity of Boc-LeuCH2 Br to inhibit phosphorylation of casein by p130^fps was determined. These tests were conducted substantially as described above, except 1 mg/mL casein was added to assay mixtures as a substrate, and reactions were terminated by addition of 2.5 mM unlabeled ATP and immediate cooling to 0°. Phosphorylated casein was separated from immunoprecipitate suspensions by centrifugation at 3,000 xg for 3 minutes. The resulting pellets were resuspended in 70 μL of 10 mM Hepes, pH 7.5, and 20 μL aliquots were pipetted onto filter paper squares as previously described. […]

Question: With CC(=O)N[C@@H](Cc1ccccc1)C(=O)NCC(=O)N[C@@H](C)C(=O)N[C@@H](CC(C)C)C(=O)CCl [Ac-Phe-Gly-Ala-LeuCH2 Cl] (Ac-FGAL-CH2Cl) as the compound, how does the “% Growth Relative to Control Cultures” value (lymphoma cell line YAC-1; 0.4 μg/mL, day 1) read?
Answer: Its value is 80%.

Question: What about the “% Growth Relative to Control Cultures” value (lymphoma cell line YAC-1; 0.4 μg/mL, day 2) of the same compound?
Answer: The value was 91%.

Question: What about the “% Growth Relative to Control Cultures” value (lymphoma cell line YAC-1; 10. μg/mL, day 1) of the same compound?
Answer: The value was 78%.

Question: And the “% Growth Relative to Control Cultures” value (lymphoma cell line YAC-1; 10. μg/mL, day 2)?
Answer: The value was 59%.

Question: What about the “% Growth Relative to Control Cultures” value (lymphoma cell line YAC-1; 10. μg/mL, day 3) of the same compound?
Answer: The value was 43%.

Question: What about the “% Growth Relative to Control Cultures” value (lymphoma cell line YAC-1; 10. μg/mL, day 4) of the same compound?
Answer: The value was 24%.

Question: What about the “% Growth Relative to Control Cultures” value ([1]; 0.4 μg/mL, day 1) of the same compound?
Answer: The value was 81%.

Question: And the “% Growth Relative to Control Cultures” value ([1]; 0.4 μg/mL, day 3)?
Answer: The value was 85%.

Question: What about the “% Growth Relative to Control Cultures” value ([1]; 0.4 μg/mL, day 7) of the same compound?
Answer: Its value is 84%.

Question: What about the “% Growth Relative to Control Cultures” value ([1]; 2.0 μg/mL, day 4) of the same compound?
Answer: Its value is 79%.

Question: And the “% Growth Relative to Control Cultures” value ([1]; 10. μg/mL, day 2)?
Answer: Its value is 77%.

Question: What about the “% Growth Relative to Control Cultures” value ([1]; 10. μg/mL, day 3) of the same compound?
Answer: The value was 87%.

Question: And the “% Growth Relative to Control Cultures” value ([1]; 10. μg/mL, day 7)?
Answer: Its value is 47%.

Question: What about the “% Growth Relative to Control Cultures” value ([2]; 0.4 μg/mL, day 1) of the same compound?
Answer: Its value is 50%.

Question: What about the “% Growth Relative to Control Cultures” value ([2]; 0.4 μg/mL, day 4) of the same compound?
Answer: The value was 72%.

Question: What about the “% Growth Relative to Control Cultures” value ([2]; 0.4 μg/mL, day 7) of the same compound?
Answer: Its value is 66%.

Question: What about the “% Growth Relative to Control Cultures” value ([2]; 2.0 μg/mL, day 4) of the same compound?
Answer: Its value is 87%.

Question: What about the “% Growth Relative to Control Cultures” value ([2]; 10. μg/mL, day 7) of the same compound?
Answer: Its value is 88%.

Question: What about the “% inhibition, EGF Added” value ([3]; EGF added) of the same compound?
Answer: The value was 59%.

Question: And the “EGF Added (pmol 32P incorporated/min/mg protein)” value ([3]; EGF added, control 20.2)?
Answer: The value was 8.3 pmol^32 P incorporated/min/mg.

Question: What about the “% inhibition, No EGF Added” value ([3]; no EGF) of the same compound?
Answer: The value was 29%.

Question: What about the “No EGF Added (pmol 32P incorporated/min/mg protein)” value ([3]; no EGF, control 7.3) of the same compound?
Answer: The value was 5.2 pmol^32 P incorporated/min/mg.

Question: For CC(C)CC(NC(=O)C(CC(C)C)NC(=O)CNC(=O)C(Cc1ccccc1)NC(=O)OCc1ccccc1)C(=O)CCl (stereo not drawn) [Z--Phe-Gly-Leu-LeuCH2 Cl, Z-Phe-Gly-Leu-LeuCH2 Cl] (Cbz-FGLL-CH2Cl; configuration not given here), which “Percent Inhibition” value (p130^fps) is on record?
Answer: Its value is 44%.

Question: How did the “Percent Inhibition” value (p130^fps) turn out when CC(C)CC(NC(=O)C(C)NC(=O)C1CCCN1C(=O)C(Cc1ccccc1)NC(=O)OCc1ccccc1)C(=O)CCl (stereo not drawn) [Z--Phe-Pro-Ala-LeuCH2 Cl] (Cbz-FPAL-CH2Cl; configuration not given here) was run?
Answer: Its value is 16%.

Question: Which “Percent Inhibition” value (p130^fps) does the source give for CC(C)CC(NC(=O)[C@H](C)NC(=O)[C@H](CC(C)C)NC(=O)[C@H](Cc1ccccc1)NC(=O)OCc1ccccc1)C(=O)CCl (stereo partly drawn) [Z--Phe-Leu-Ala-LeuCH2 Cl, Z-Phe-Leu-Ala-LeuCH2 Cl] (Cbz-FLA[ξL]-CH2Cl) here?
Answer: The value was 36%.

Question: How did the “Percent Inhibition” value (p130^fps) turn out when CC(C)C[C@H](NC(=O)[C@H](C)NC(=O)[C@H](Cc1ccccc1)NC(=O)[C@H](Cc1ccccc1)NC(=O)OCc1ccccc1)C(=O)CCl [Z--Phe-Phe-Ala-LeuCH2 Cl] (Cbz-FFAL-CH2Cl) was run?
Answer: The value was 11%.

Question: For CC(C)C[C@H](NC(=O)[C@H](Cc1ccccc1)NC(=O)CNC(=O)[C@H](Cc1ccccc1)NC(=O)OCc1ccccc1)C(=O)CCl [Z--Phe-Gly-Phe-LeuCH2 Cl, Z-Phe-Gly-Phe-LeuCH2 Cl] (Cbz-FGFL-CH2Cl), which “Percent Inhibition” value (p130^fps) is on record?
Answer: Its value is 34%.

Question: CC(C)CC(NC(=O)C(CCCCN)NC(=O)CNC(=O)C(Cc1ccccc1)NC(=O)OCc1ccccc1)C(=O)CCl (stereo not drawn) [Z--Phe-Gly-Lys-LeuCH2 Cl, Z-Phe-Gly-Lys-LeuCH2 Cl] (Cbz-FGKL-CH2Cl; configuration not given here) was tested. Which “Percent Inhibition” value (p130^fps) did it give?
Answer: The value was 48%.

Question: For CC(=O)NC(Cc1ccccc1)C(=O)NCC(=O)NC(CCC(=O)O)C(=O)NC(CC(C)C)C(=O)CCl (stereo not drawn) [Ac-Phe-Gly-Glu-LeuCH2 Cl] (Ac-FGEL-CH2Cl; configuration not given here), which “Percent Inhibition” value (p130^fps) is on record?
Answer: The value was 0%.
